Experimental data published in US11214803B2, “Modulators of YAP1 expression” (Ionis Pharmaceuticals, Inc., priority 2019, dated 2022).
Strand notation (5' to 3'): a small letter for the sugar, then the base; units joined by * are phosphorothioate-linked, units joined directly phosphodiester-linked; [ ] holds rarer units or linkages, { } end groups; capitals alone tell only the bases. k = constrained ethyl (cEt); [5mC] = 5-methylcytosine; d = 2'-deoxy (DNA)

Key:
Format in all cases: cell-based
Yap1 mRNA [1] = assay: Antisense inhibition of human Yap1 in A-431 cells by cEt gapmers, single dose (Example 4, RTS4814)
Summary of the method: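 A-431 cells took up 3-10-3 cEt gapmers (16-mer, full phosphorothioate, 5-methylcytosines) by free uptake at 2,000 nM for about 48 h. Yap1 mRNA was quantified by qRT-PCR, normalized to total RNA (RIBOGREEN), and reported as % of untreated control.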

Yap1 mRNA [2] = assay: Dose-dependent inhibition of human Yap1 in A-431 cells (Example 8, 10,000 cells per well, RTS4814); settings: A-431 cells; for IC50: Yap1 mRNA
Summary of the method: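 A-431 cells (10,000/well) dosed with modified oligonucleotides by free uptake; Yap1 mRNA measured ~48 h later with primer-probe set RTS4814, normalized to total RNA (RIBOGREEN). Values are % of untreated control; IC50 from linear regression on log/linear plot.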

Yap1 mRNA [3] = assay: Antisense inhibition of human Yap1 in SNU-449 cells by modified oligonucleotides, single dose (Example 5, RTS36584); settings: Yap1 mRNA, percent of untreated control; modified oligonucleotides targeting SEQ ID NO: 1 and 2; Table 47
Summary of the method: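 Each modified oligonucleotide is applied by free uptake to SNU-449 cultures at 2,000 nM, and total RNA is harvested around 48 h later. Yap1 transcript, quantified with the RTS36584 set and corrected for RIBOGREEN RNA content, is given as % UTC. Asterisks mark sequences overlapping the amplicon.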

[4] = Yap1 mRNA remaining as percent of untreated control, 3-10-3 cEt gapmers, A-431 cells, Table 36
[5] = Yap1 mRNA remaining as percent of untreated control, 3-10-3 cEt gapmers, A-431 cells, Table 37

| Substance | YAP1 (% UTC) (Yap1 mRNA [1]; [4]) | % UTC (Yap1 mRNA) (Yap1 mRNA [2]; 31.3 nM) [% UTC] | % UTC (Yap1 mRNA) (Yap1 mRNA [2]; 125.0 nM) [% UTC] | % UTC (Yap1 mRNA) (Yap1 mRNA [2]; 500.0 nM) [% UTC] | % UTC (Yap1 mRNA) (Yap1 mRNA [2]; 2000.00 nM) [% UTC] | IC50 (Yap1 mRNA [2]) [nM] | YAP1 (% UTC) (Yap1 mRNA [1]; [5]) | YAP1 (% UTC) (Yap1 mRNA [1]; Table 14, A-431 cells, 5,000 cells per well, free uptake, 2,000 nM, approximately 48 hours, RTS4814, normalized to RIBOGREEN, Yap1 mRNA relative to untreated control, * = targets amplicon region of primer probe set) | YAP1 (% UT) (Yap1 mRNA [3]) | YAP1 (% UTC) (Yap1 mRNA [1]; Table 16, A-431 cells, 5,000 cells per well, free uptake, 2,000 nM, approximately 48 hours, RTS4814, normalized to RIBOGREEN, Yap1 mRNA relative to untreated control cells) | YAP1 (% UTC) (Yap1 mRNA [1]; Table 17, A-431 cells, 5,000 cells per well, free uptake, 2,000 nM, approximately 48 hours, RTS4814, normalized to RIBOGREEN, Yap1 mRNA relative to untreated control cells) | YAP1 (% UTC) (Yap1 mRNA [1]; Table 15, A-431 cells, 5,000 cells per well, free uptake, 2,000 nM, approximately 48 hours, RTS4814, normalized to RIBOGREEN, Yap1 mRNA relative to untreated control, * = targets amplicon region of primer probe set) |
| --- | --- | --- | --- | --- | --- | --- | --- | --- | --- | --- | --- | --- |
| 1076534 (kA*k[5mC]*kT*dA*dT*dA*dA*dA*dG*d[5mC]*dA*dA*dT*kG*k[5mC]*kG; antisense) [compound 1076534] | 4 | 88 | 48 | 20 | 10 | 200 | – | – | – | – | – | – |
| 1076119 (kG*kT*kT*dA*dA*dA*dT*dA*dT*dG*dA*dA*dT*kT*kG*kG; antisense) [compound 1076119] | – | 82 | 35 | 12 | 6 | 100 | 7 | – | – | – | – | – |
| 1074487 (kA*kG*kA*dT*dT*d[5mC]*dA*d[5mC]*dT*dA*dA*dT*dA*kT*kG*kG; antisense) [compound 1074487] | – | 73 | 28 | 11 | 6 | 100 | 7 | – | – | – | – | – |
| 1076439 (k[5mC]*kT*kT*dA*dT*dA*dT*dG*dG*dT*dT*dT*dT*kG*kT*kG) [compound 1076439] | – | 48 | 13 | 6 | 5 | < 20 | 4 | – | – | – | – | – |
| 1074486 (kA*kT*kT*d[5mC]*dA*d[5mC]*dT*dA*dA*dT*dA*dT*dG*kG*kT*k[5mC]; antisense) [compound 1074486] | 4 | 55 | 26 | 10 | 6 | < 20 | – | – | – | – | – | – |
| 1076471 (k[5mC]*kA*kT*dT*dA*dG*dA*d[5mC]*dT*dA*dG*dG*d[5mC]*kT*kT*kT; antisense) [compound 1076471] | – | 64 | 29 | 9 | 5 | 50 | 5 | – | – | – | – | – |
| 1076023 (kA*kT*kA*dA*dT*dT*dA*dG*dA*dT*dG*d[5mC]*dT*kG*kA*k[5mC]; antisense) [compound 1076023] | – | 60 | 18 | 5 | 3 | < 20 | 4 | – | – | – | – | – |
| 1074678 (antisense kT*kA*kA*dT*d[5mC]*dT*dG*dT*dG*dG*d[5mC]*dT*dA*k[5mC]*kT*kG) [compound 1074678] | 7 | 73 | 37 | 16 | 10 | 100 | – | – | – | – | – | – |
| 1074464 (kT*kT*kA*dG*dA*dG*dT*dA*dT*dG*dT*dG*dG*k[5mC]*kA*kA) [Compound 1074464] | – | – | – | – | – | – | – | 2 | 5 % UT | – | – | – |
| 1074454 (kT*kG*kT*dG*dA*d[5mC]*dT*dA*dA*dT*dG*dA*dT*kA*kG*k[5mC]; antisense) [compound 1074454] | 1 | 39 | 9 | 3 | 3 | < 20 | – | – | – | – | – | – |
| 1074754 (k[5mC]*kT*kT*dT*dT*dA*d[5mC]*dA*dT*dT*dA*dG*dG*kA*kA*k[5mC]) [Compound 1074754] | – | – | – | – | – | – | – | – | 69 % UT | 11 | – | – |
| 1075222 (kG*kT*kA*dT*dT*dT*dG*dG*dA*d[5mC]*dA*dA*d[5mC]*kT*k[5mC]*kT; antisense) [compound 1075222] | 3 | 75 | 30 | 8 | 5 | 100 | – | – | – | – | – | – |
| 1074679 (antisense kT*k[5mC]*kT*dT*dA*dA*dT*d[5mC]*dT*dG*dT*dG*dG*k[5mC]*kT*kA) [compound 1074679] | – | 52 | 16 | 6 | 5 | < 20 | 5 | – | – | – | – | – |
| 1076183 (k[5mC]*kT*kT*d[5mC]*dT*dA*dT*dA*dA*dT*dT*dA*dG*k[5mC]*k[5mC]*kA; antisense) [compound 1076183] | – | 65 | 22 | 9 | 6 | 40 | 7 | – | – | – | – | – |
| 1074755 (CACTTTTACATTAGGA; antisense; chemistry not fully specified) [Compound 1074755] | – | – | – | – | – | – | – | – | 23 % UT | – | 3 | – |
| 1075990 (k[5mC]*kG*kT*dT*dA*dT*dT*dA*dT*dG*d[5mC]*dA*dG*k[5mC]*kA*kA; antisense) [compound 1075990] | 1 | 28 | 6 | 3 | 3 | < 20 | – | – | – | – | – | – |
| 1075766 (kG*kG*kA*dG*dA*dA*d[5mC]*dA*d[5mC]*dA*dA*dG*dA*kG*kG*k[5mC]; antisense) [compound 1075766] | 5 | 56 | 21 | 11 | 8 | < 20 | – | – | – | – | – | – |
| 1074775 (kG*kG*kT*dT*dT*dA*dT*dT*dG*dT*dA*dA*dA*kA*kG*k[5mC]; antisense) [compound 1074775] | – | 26 | 5 | 2 | 2 | < 20 | 3 | – | – | – | – | – |
| 1076481 (antisense k[5mC]*kT*kA*dA*dG*dT*dA*dA*dG*dG*dT*dT*dT*k[5mC]*k[5mC]*k[5mC]) [Compound 1076481] | – | – | – | – | – | – | – | – | ^mCksTksAksAdsGdsTdsAdsAdsGdsGds13 % UT | – | – | 1 |
| 1076022 (kT*kA*kA*dT*dT*dA*dG*dA*dT*dG*d[5mC]*dT*dG*kA*k[5mC]*kA; antisense) [compound 1076022] | 2 | 63 | 28 | 8 | 5 | 40 | – | – | – | – | – | – |
| 1074230 (antisense kA*kA*kG*dA*dA*dG*dA*d[5mC]*dT*dG*dT*d[5mC]*dG*kA*kA*kG) [compound 1074230] | 4 | 62 | 30 | 12 | 8 | 50 | – | – | – | – | – | – |
| 1076406 (antisense kA*kT*kT*dA*dT*dT*dT*dA*dA*dG*dA*d[5mC]*d[5mC]*kT*kG*kG) [compound 1076406] | 4 | 51 | 20 | 9 | 7 | < 20 | – | – | – | – | – | – |
